# From US20250170105A1, “ASSOCIATION WITH ANTIBIOTIC ACTIVITY, PHARMACEUTICAL COMPOSITIONS CONTAINING IT AND THEIR USE IN THE TREATMENT OF INFECTIONS” (VETAGRO INTERNATIONAL S.R.L., priority 2022, published 2025)
# Tests used:
# Assay type in all cases: cell-based
# Escherichia Coli K88 95 [1] = test: Combination test, checkerboard, % inhibition; details: E. coli 95
# Protocol: (§1) Strains were stored at −80° C. in appropriate media with glycerol, thawed and cultured according to conventional practices.
# (§2) The tests were conducted using the microdilution method in a 96-well plate to be microtitered with the medium and culture conditions appropriate for the strains. Bacterial strains (10^5-10^6 CFU/ml) were incubated with the compounds to be tested, while control strains, when necessary, were grown in media containing 3.5% ethanol to exclude an inhibitory effect of any ethanol present in the stock solutions. After incubation, MIC was defined as the lowest concentration resulting in zero absorbance at 630 nm, recorded with Varioskan® LUX Multimode Microplat Reader (Thermo Fisher Scientific). For each test, the percentage of inhibition (%) was calculated with respect to the relative control.
# (§3) After phase 1, the strains were tested with associations at sub-effective doses of AB and OA or NIC in a 2×2 checkerboard model. Specifically, two sub-effective doses of AB were associated with two sub-effective doses of OA or NIC (half and one-quarter of MICs) as shown in FIG. 1.
# (§4) The % indicate the percentage of inhibition (compounds alone and combinations).
# (§5) Tables 4 to 7 show the % of inhibition of the components of the associations alone, at the effective concentrations shown in Tables 2 and 3, and at the sub-effective concentrations (half and one-quarter of MICs), and the % of inhibition of the associations.
# Streptococcus suis 701 [2] = test: Combination test, checkerboard, % inhibition; details: S. suis 701
# Protocol: as §1, §2, §3, §4, §5
# Escherichia coli K88 97 [3] = test: Combination test, checkerboard, % inhibition; details: E. coli 97
# Protocol: as §1, §2, §3, §4, §5
# Streptococcus suis 702 [4] = test: Combination test, checkerboard, % inhibition; details: S. suis 702
# Protocol: as §1, §2, §3, §4, §5
# Escherichia Coli K88 95 [5] = test: Individual tests, microdilution MIC; details: E. coli 95; for MIC: Escherichia coli, COLIK8895, read-out: MIC values
# Protocol: as §1
# (§6) The ABs shown in Tables 2 and 3 below, all obtained from Aplha Aesar, were tested. The OAs used are shown in Tables 2 and 3 below, all obtained from Merck. The stock solutions were prepared appropriately and in appropriate way and media for the different strains and could contain 3.5% ethanol to increase solubility.
# as §2
# (§7) ABs were tested in the range 64-0.13 ppm, OAs in the range […] and NICs in the range 7.5-0.06 nM.
# Streptococcus suis 701 [6] = test: Individual tests, microdilution MIC; details: S. suis 701; for MIC: Streptococcus suis, read-out: MIC values
# Protocol: as §1, §6, §2, §7
# Escherichia coli K88 97 [7] = test: Individual tests, microdilution MIC; details: E. coli 97; for MIC: Escherichia coli, K8897, read-out: MIC values
# Protocol: as §1, §6, §2, §7
# Streptococcus suis 702 [8] = test: Individual tests, microdilution MIC; details: S. suis 702; for MIC: Streptococcus suis, read-out: MIC values
# Protocol: as §1, §6, §2, §7
molecule,measurement,setting,value
"C/C=C/C=C/C(=O)O [Sorbic Acid, sorbic acid]",% inhibition,Escherichia Coli K88 95 [1]; SOR 12.5 mM alone,69%
same,% inhibition,Escherichia Coli K88 95 [1]; SOR 25 mM alone,85%
same,% inhibition,Streptococcus suis 701 [2]; SOR 25 mM alone,30%
same,% inhibition,Streptococcus suis 701 [2]; SOR 50 mM alone,56%
same,% inhibition,Escherichia coli K88 97 [3]; SOR 12.5 mM alone,79%
same,% inhibition,Escherichia coli K88 97 [3]; SOR 25 mM alone,93%
same,% inhibition,Streptococcus suis 702 [4]; SOR 12.5 mM alone,26%
same,% inhibition,Streptococcus suis 702 [4]; SOR 25 mM alone,38%
same,MIC,Escherichia Coli K88 95 [5],50 mM
same,MIC,Streptococcus suis 701 [6],100 mM
same,MIC,Escherichia coli K88 97 [7],50 mM
same,MIC,Streptococcus suis 702 [8],50 mM
Cc1cc(NS(=O)(=O)c2ccc(N)cc2)no1 [Sulfamethoxazole],MIC,Escherichia Coli K88 95 [5],> 608 µg/mL
same,MIC,Escherichia coli K88 97 [7],> 608 µg/mL
"CN(C)[C@@H]1C(O)=C(C(N)=O)C(=O)[C@@]2(O)C(O)=C3C(=O)c4c(O)cccc4[C@@](C)(O)[C@H]3C[C@@H]12 [Tetracycline, tetracycline, reference compound]",% inhibition,Streptococcus suis 701 [2]; TET 16 ppm alone,11%
same,% inhibition,Streptococcus suis 701 [2]; TET 32 ppm alone,28%
same,% inhibition,Streptococcus suis 702 [4]; TET 0.5 ppm alone,20%
same,% inhibition,Streptococcus suis 702 [4]; TET 1 ppm alone,27%
same,MIC,Escherichia Coli K88 95 [5],> 64 µg/mL
same,MIC,Streptococcus suis 701 [6],64 µg/mL
same,MIC,Escherichia coli K88 97 [7],> 64 µg/mL
same,MIC,Streptococcus suis 702 [8],2 µg/mL
"Cc1ccc(C(C)C)c(O)c1 [Thymol, 2-isopropyl-5-methylphenol]",% inhibition,Escherichia Coli K88 95 [1]; THY 0.47 mM alone,7%
same,% inhibition,Escherichia Coli K88 95 [1]; THY 0.94 mM alone,18%
same,% inhibition,Streptococcus suis 701 [2]; THY 0.47 mM alone,0%
same,% inhibition,Streptococcus suis 701 [2]; THY 0.94 mM alone,39%
same,% inhibition,Escherichia coli K88 97 [3]; THY 0.47 mM alone,8%
same,% inhibition,Escherichia coli K88 97 [3]; THY 0.94 mM alone,12%
same,% inhibition,Streptococcus suis 702 [4]; THY 0.47 mM alone,10%
same,% inhibition,Streptococcus suis 702 [4]; THY 0.94 mM alone,36%
same,MIC,Escherichia Coli K88 95 [5],1.87 mM
same,MIC,Streptococcus suis 701 [6],1.87 mM
same,MIC,Escherichia coli K88 97 [7],1.87 mM
same,MIC,Streptococcus suis 702 [8],1.87 mM
C=C[C@]1(C)C[C@@H](OC(=O)CSCCN(CC)CC)[C@]2(C)[C@H](C)CC[C@]3(CCC(=O)[C@H]32)[C@@H](C)[C@@H]1O [Tiamulin],MIC,Streptococcus suis 701 [6],4 µg/mL
same,MIC,Streptococcus suis 702 [8],1 µg/mL
COc1cc(Cc2cnc(N)nc2N)cc(OC)c1OC [Trimethoprim],MIC,Escherichia Coli K88 95 [5],> 32 µg/mL
same,MIC,Escherichia coli K88 97 [7],> 32 µg/mL
CC[C@H]1OC(=O)C[C@@H](O)[C@H](C)[C@@H](O[C@@H]2O[C@H](C)[C@@H](O[C@H]3C[C@@](C)(O)[C@@H](O)[C@H](C)O3)[C@H](N(C)C)[C@H]2O)[C@@H](CC=O)C[C@@H](C)C(=O)/C=C/C(C)=C/[C@@H]1CO[C@@H]1O[C@H](C)[C@@H](O)[C@@H](OC)[C@H]1OC [Tylosin],MIC,Streptococcus suis 701 [6],2 µg/mL
same,MIC,Streptococcus suis 702 [8],> 64 µg/mL
Penicillin,MIC values,Streptococcus suis 701 [6],0.13 ppm
same,MIC values,Streptococcus suis 702 [8],0.13 ppm
colistin [reference compound],% inhibition,Escherichia Coli K88 95 [1]; COL 4 ppm alone,3%
same,% inhibition,Escherichia Coli K88 95 [1]; COL 8 ppm alone,8%
same,% inhibition,Escherichia Coli K88 95 [1]; COL 16 ppm alone,40%
same,% inhibition,Escherichia coli K88 97 [3]; COL 4 ppm alone,10%
same,% inhibition,Escherichia coli K88 97 [3]; COL 8 ppm alone,12%
same,% inhibition,Escherichia coli K88 97 [3]; COL 16 ppm alone,29%
same,MIC values,Escherichia Coli K88 95 [5],32 ppm
same,MIC values,Escherichia coli K88 97 [7],32 ppm
neomycin [reference compound],% inhibition,Streptococcus suis 701 [2]; NEO 2 ppm alone,6%
same,% inhibition,Streptococcus suis 701 [2]; NEO 4 ppm alone,15%
same,% inhibition,Streptococcus suis 702 [4]; NEO 4 ppm alone,10%
same,% inhibition,Streptococcus suis 702 [4]; NEO 8 ppm alone,16%
same,MIC values,Escherichia Coli K88 95 [5],>64 ppm
same,MIC values,Streptococcus suis 701 [6],8 ppm
same,MIC values,Escherichia coli K88 97 [7],>64 ppm
same,MIC values,Streptococcus suis 702 [8],16 ppm
